# Tests used:
# Assay in all cases: relative viability (nuclei count vs DMSO), 5 days (fraction); higher = more cells survive
# NCI-H520 = system: NCI-H520
# Method in brief: (§1)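 Nuclei were stained with Hoechst during a one-step fixation (final 0.05% Triton X-100, 1% formaldehyde, 1 ug/ml Hoechst) carried out 5 days after dosing, then counted on 4× images. The cells, lung cancer lines in 1536-well plates, had been dosed by pin tool the day after seeding with one drug alone or a fixed anchor-drug dose plus five library-drug doses (not always all listed) in √10 steps. Relative viability is the nuclei count in treated wells divided by that in vehicle wells, and each value is the median of duplicate plates.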
# NCI-H3122 = system: NCI-H3122
# Method in brief: as §1
# NCI-H1734 = system: NCI-H1734
# Method in brief: as §1
# RERF-LC-KJ = system: RERF-LC-KJ
# Method in brief: as §1
# H3255 = system: H3255
# Method in brief: as §1
# NCI-H2170 = system: NCI-H2170
# Method in brief: as §1
# EPLC-272H = system: EPLC-272H
# Method in brief: as §1
# PC-14 = system: PC-14
# Method in brief: as §1
# NCI-H647 = system: NCI-H647
# Method in brief: as §1
# NCI-H1993 = system: NCI-H1993
# Method in brief: as §1
# LOU-NH91 = system: LOU-NH91
# Method in brief: as §1
smiles,measurement,setting,value
C=C1C(=O)O[C@@H](CCCCCCCC)[C@@H]1C(=O)O [C-75] + CS(=O)(=O)CCNCc1ccc(-c2ccc3ncnc(Nc4ccc(OCc5cccc(F)c5)c(Cl)c4)c3c2)o1 [Lapatinib] (partner 2 µM),relative viability,NCI-H520; first compound 0.253 µM,0.964
same,relative viability,NCI-H520; first compound 0.8 µM,0.703
same,relative viability,NCI-H520; first compound 2.53 µM,0.734
same,relative viability,NCI-H520; first compound 8 µM,0.598
same,relative viability,NCI-H3122; first compound 0.08 µM,1.03
same,relative viability,NCI-H3122; first compound 0.253 µM,1.02
same,relative viability,NCI-H3122; first compound 0.8 µM,0.997
same,relative viability,NCI-H3122; first compound 8 µM,1.02
same,relative viability,NCI-H1734; first compound 0.08 µM,0.981
same,relative viability,NCI-H1734; first compound 0.253 µM,1.13
same,relative viability,NCI-H1734; first compound 0.8 µM,1.02
same,relative viability,NCI-H1734; first compound 2.53 µM,0.362
same,relative viability,NCI-H1734; first compound 8 µM,0.908
same,relative viability,RERF-LC-KJ; first compound 0.08 µM,0.826
same,relative viability,RERF-LC-KJ; first compound 0.253 µM,0.866
same,relative viability,RERF-LC-KJ; first compound 0.8 µM,0.863
same,relative viability,RERF-LC-KJ; first compound 2.53 µM,0.872
same,relative viability,RERF-LC-KJ; first compound 8 µM,0.966
same,relative viability,H3255; first compound 0.08 µM,0.277
same,relative viability,H3255; first compound 0.253 µM,0.314
same,relative viability,H3255; first compound 0.8 µM,0.254
same,relative viability,H3255; first compound 2.53 µM,0.21
same,relative viability,H3255; first compound 8 µM,0.274
same,relative viability,NCI-H2170; first compound 0.08 µM,0.269
same,relative viability,NCI-H2170; first compound 0.253 µM,0.276
same,relative viability,NCI-H2170; first compound 0.8 µM,0.255
same,relative viability,NCI-H2170; first compound 2.53 µM,0.216
same,relative viability,NCI-H2170; first compound 8 µM,0.276
same,relative viability,EPLC-272H; first compound 0.08 µM,0.974
same,relative viability,EPLC-272H; first compound 0.253 µM,0.805
same,relative viability,EPLC-272H; first compound 0.8 µM,1.01
same,relative viability,EPLC-272H; first compound 2.53 µM,0.592
same,relative viability,EPLC-272H; first compound 8 µM,0.789
same,relative viability,PC-14; first compound 0.08 µM,0.316
same,relative viability,PC-14; first compound 0.253 µM,0.259
same,relative viability,PC-14; first compound 0.8 µM,0.328
same,relative viability,PC-14; first compound 2.53 µM,0.243
same,relative viability,PC-14; first compound 8 µM,0.343
same,relative viability,NCI-H647; first compound 0.08 µM,0.896
same,relative viability,NCI-H647; first compound 0.253 µM,1.38
same,relative viability,NCI-H647; first compound 2.53 µM,0.791
same,relative viability,NCI-H647; first compound 8 µM,0.584
same,relative viability,NCI-H1993; first compound 0.08 µM,0.796
same,relative viability,NCI-H1993; first compound 0.253 µM,0.825
same,relative viability,NCI-H1993; first compound 0.8 µM,0.807
same,relative viability,NCI-H1993; first compound 2.53 µM,0.763
same,relative viability,NCI-H1993; first compound 8 µM,0.667
same,relative viability,LOU-NH91; first compound 0.08 µM,0.821
same,relative viability,LOU-NH91; first compound 0.253 µM,0.833
same,relative viability,LOU-NH91; first compound 0.8 µM,0.657
same,relative viability,LOU-NH91; first compound 2.53 µM,0.533
same,relative viability,LOU-NH91; first compound 8 µM,0.716

# Source: the supplement of paper PMC10307832
